Assay results from US20260293949A1, “CARBONATION SENSATION IMPARTING OR ENHANCING AGENT” (TAKASAGO INTERNATIONAL CORPORATION, priority 2022, published 2026).

Experiment: Sensory evaluation of fizziness enhancement in carbonated water (WILKINSON TANSAN), specialized panelists
Type: in vivo
Conditions: for Fizziness enhancement evaluation result: average score of seven panelists
Method: In the following Examples, the action and effect were verified using a value obtained by calculating an average score of scores for imparting or enhancing fizziness by sensory evaluation conducted by specialized panelists. The expression “1 point” in the evaluation is the evaluation in the case where no component is added at all (no addition).
Diethyl sebacate (manufactured by Inoue Perfumery Mfg. Co., Ltd., the same applies to the following Examples) was separately added to “WILKINSON (registered trademark) TANSAN (manufactured by Asahi Soft Drinks Co., Ltd.)” so as to reach the concentrations shown in Table 2 below, and sensory evaluation was performed by seven specialized panelists to determine the extent to which fizziness was enhanced as compared with a control in which diethyl sebacate was not added.
Diisobutyl adipate (manufactured by Inoue Perfumery Mfg. Co., Ltd., the same applies to the following Examples) was separately added to “WILKINSON (registered trademark) TANSAN (manufactured by Asahi Soft Drinks Co., Ltd.)” so as to reach the concentrations shown in Table 3 below, and sensory evaluation was performed by seven specialized panelists to determine the extent to which fizziness was enhanced as compared with a control in which diisobutyl adipate was not added.
Dimethyl sebacate (manufactured by Tokyo Chemical Industry Co., Ltd.) was separately added to “WILKINSON (registered trademark) TANSAN (manufactured by Asahi Soft Drinks Co., Ltd.)” so as to reach the concentrations shown in Table 4 below, and sensory evaluation was performed by seven specialized panelists to determine the extent to which fizziness was enhanced as compared with a control in which dimethyl sebacate was not added.
Dipropyl adipate (manufactured by Tokyo Chemical Industry Co., Ltd.) was separately added to “WILKINSON (registered trademark) TANSAN (manufactured by Asahi Soft Drinks Co., Ltd.)” so as to reach the concentrations shown in Table 5 below, and sensory evaluation was performed by seven specialized panelists to determine the extent to which fizziness was enhanced as compared with a control in which dipropyl adipate was not added.

Compound: CC(C)COC(=O)CCCCC(=O)OCC(C)C [Diisobutyl adipate, diisobutyl adipate]
- amelioration of mouthfeel (in words): effect of ameliorating the mouthfeel was also confirmed
- fizziness enhancement (in words): fizziness of carbonated water can be enhanced
- Fizziness enhancement evaluation result (0.005 ppm, 1 (not enhanced) to 5 (extremely enhanced)): 1.1 points
- Fizziness enhancement evaluation result (0.01 ppm, 1 to 5): 1.6 points
- Fizziness enhancement evaluation result (0.1 ppm, 1 to 5): 3.4 points
- Fizziness enhancement evaluation result (0.5 ppm, 1 to 5): 3.6 points
- Fizziness enhancement evaluation result (1 ppm, 1 to 5): 3.4 points
- Fizziness enhancement evaluation result (5 ppm, 1 to 5): 1.7 points
- Fizziness enhancement evaluation result (10 ppm, 1 to 5): 1.3 points

Compound: COC(=O)CCCCCCCCC(=O)OC [Dimethyl sebacate, dimethyl sebacate]
- amelioration of mouthfeel (in words): effect of ameliorating the mouthfeel was also confirmed
- fizziness enhancement (in words): fizziness of carbonated water can be enhanced
- Fizziness enhancement evaluation result (0.1 ppm, 1 to 5): 1.1 points
- Fizziness enhancement evaluation result (0.5 ppm, 1 to 5): 1.6 points
- Fizziness enhancement evaluation result (1 ppm, 1 to 5): 2.0 points
- Fizziness enhancement evaluation result (5 ppm, 1 to 5): 2.4 points
- Fizziness enhancement evaluation result (10 ppm, 1 to 5): 3.1 points
- Fizziness enhancement evaluation result (20 ppm, 1 to 5): 2.6 points
- Fizziness enhancement evaluation result (50 ppm, 1 to 5): 1.4 points
- Fizziness enhancement evaluation result (100 ppm, 1 to 5): 1.3 points

Compound: CCCOC(=O)CCCCC(=O)OCCC [Dipropyl adipate, dipropyl adipate]
- amelioration of mouthfeel (in words): effect of ameliorating the mouthfeel was also confirmed
- fizziness enhancement (in words): fizziness of carbonated water can be enhanced
- Fizziness enhancement evaluation result (0.1 ppm, 1 to 5): 1.1 points
- Fizziness enhancement evaluation result (0.5 ppm, 1 to 5): 1.4 points
- Fizziness enhancement evaluation result (1 ppm, 1 to 5): 1.9 points
- Fizziness enhancement evaluation result (5 ppm, 1 to 5): 2.6 points
- Fizziness enhancement evaluation result (10 ppm, 1 to 5): 3.0 points
- Fizziness enhancement evaluation result (20 ppm, 1 to 5): 1.7 points
- Fizziness enhancement evaluation result (50 ppm, 1 to 5): 1.4 points
- Fizziness enhancement evaluation result (100 ppm, 1 to 5): 1.1 points
